In the supplement of paper PMC13380429:

How the values were obtained:
HepG2 [1] = test: cell viability relative to DMSO; higher = less toxic; details: 72 h
Vero E6 [2] = test: as above; details: 72 h
Caco-2 [3] = test: as above; details: 72 h
U2OS [4] = test: as above; details: 72 h
A549-ACE2 [5] = test: phospholipidosis EC50; higher = less potent phospholipidosis inducer
HepG2 [6] = test: drug sensitivity score (DSS) for viability; higher = more toxic; extreme values may be limits of the assay; details: 72 h
Vero E6 [7] = test: as above; details: 72 h
Caco-2 [8] = test: as above; details: 72 h
U2OS [9] = test: as above; details: 72 h
[10] = system: A549-ACE2 infected with SARS-CoV-2; test: cell count relative to DMSO; higher = less toxic; details: 24 h
[11] = system: A549-ACE2 infected with SARS-CoV-2; test: morphology score (similarity to uninfected cells); higher = more like uninfected cells; details: 24 h
[12] = system: A549-ACE2 infected with SARS-CoV-2; test: SARS-CoV-2 infection rate relative to DMSO; higher = more infection; details: 24 h
A549-ACE2 [13] = test: drug-induced phospholipidosis relative to tamoxifen; higher = more phospholipidosis
HepG2 [14] = test: relative viability EC50 (midpoint between 100% and the lowest measured viability); higher = less toxic; details: 72 h
Vero E6 [15] = test: as above; details: 72 h
Caco-2 [16] = test: as above; details: 72 h
U2OS [17] = test: as above; details: 72 h
Calu-3 [18] = test: cell viability relative to DMSO; higher = less toxic; details: 72 h
Calu-3 [19] = test: drug sensitivity score (DSS) for viability; higher = more toxic; extreme values may be limits of the assay; details: 72 h
Calu-3 [20] = test: relative viability EC50 (midpoint between 100% and the lowest measured viability); higher = less toxic; details: 72 h

O=C(c1ccc(Nc2nccc(-c3cc4ccccc4s3)n2)cc1)N1CCC(N2CCCC2)CC1 [IKK-16]
Details	SARS-CoV-2 infection rate [%]	cell count [%]	cell viability [%]	morphology score	phospholipidosis EC50 [nM]
A549-ACE2 [5], 24 h	–	–	–	–	1050
A549-ACE2 [5], 48 h	–	–	–	–	1530
A549-ACE2 [5], 72 h	–	–	–	–	1100
Caco-2 [3], 1 nM	–	–	97.6	–	–
Caco-2 [3], 10 nM	–	–	102	–	–
Caco-2 [3], 100 nM	–	–	98.9	–	–
Caco-2 [3], 1000 nM	–	–	79.8	–	–
Caco-2 [3], 10000 nM	–	–	9.4	–	–
HepG2 [1], 1 nM	–	–	95.9	–	–
HepG2 [1], 10 nM	–	–	108	–	–
HepG2 [1], 100 nM	–	–	91.6	–	–
HepG2 [1], 1000 nM	–	–	86.9	–	–
HepG2 [1], 10000 nM	–	–	-0.2	–	–
U2OS [4], 1 nM	–	–	97.4	–	–
U2OS [4], 10 nM	–	–	95.5	–	–
U2OS [4], 100 nM	–	–	97.6	–	–
U2OS [4], 1000 nM	–	–	91.7	–	–
U2OS [4], 10000 nM	–	–	0.8	–	–
Vero E6 [2], 1 nM	–	–	97.4	–	–
Vero E6 [2], 10 nM	–	–	99.5	–	–
Vero E6 [2], 100 nM	–	–	99.5	–	–
Vero E6 [2], 1000 nM	–	–	97.6	–	–
Vero E6 [2], 10000 nM	–	–	-0.2	–	–
[10], 0.1 µM	–	102	–	–	–
[10], 0.3 µM	–	93	–	–	–
[10], 1 µM	–	111	–	–	–
[10], 3 µM	–	109	–	–	–
[11], 0.1 µM	–	–	–	-0.12	–
[11], 0.3 µM	–	–	–	-0.2	–
[11], 1 µM	–	–	–	0.57	–
[11], 3 µM	–	–	–	0.49	–
[12], 0.1 µM	101	–	–	–	–
[12], 0.3 µM	104	–	–	–	–
[12], 1 µM	62	–	–	–	–
[12], 3 µM	19	–	–	–	–

Details	drug sensitivity score	relative viability EC50 [nM]
Caco-2 [8]	8.2	–
Caco-2 [16]	–	1640
HepG2 [6]	7.7	–
HepG2 [14]	–	2100
U2OS [9]	6.8	–
U2OS [17]	–	2480
Vero E6 [7]	5.9	–
Vero E6 [15]	–	2980

drug-induced phospholipidosis [%], A549-ACE2 [13]
Details	0.3 µM	0.833333 µM	3.33333 µM	6.66667 µM	10 µM	30 µM
24 h	-2.91	8.17	163	140	179	55.6
48 h	-0.02	5.69	114	107	125	–
72 h	0.998	5.79	108	91.2	–	–

CC[C@@H](C(=O)[C@@H](C)[C@@H](O)[C@H](C)[C@@H]1O[C@@H]([C@@H](CC)C(=O)O)CC[C@@H]1C)[C@H]1O[C@]2(C=C[C@@H](O)[C@]3(CC[C@@](C)([C@H]4CC[C@](O)(CC)[C@H](C)O4)O3)O2)[C@H](C)C[C@@H]1C [Salinomycin (Procoxacin)]
Details	SARS-CoV-2 infection rate, [12] [%]	cell count, [10] [%]	cell viability, Caco-2 [3] [%]	cell viability, Calu-3 [18] [%]	cell viability, HepG2 [1] [%]	cell viability, U2OS [4] [%]	cell viability, Vero E6 [2] [%]	morphology score, [11]
1 nM	–	–	100	87.9	121	100	109	–
10 nM	–	–	98.7	91.4	108	105	103	–
100 nM	–	–	69.5	80.6	103	89.2	104	–
0.3 µM	28	118	–	–	–	–	–	0.84
1000 nM	–	–	38.3	53.1	36.6	68.7	70.1	–
3 µM	19	110	–	–	–	–	–	0.8
10000 nM	–	–	17.3	26.5	25.3	22.6	44.7	–
10 µM	26	116	–	–	–	–	–	0.51
30 µM	54	101	–	–	–	–	–	0

Details	drug sensitivity score	relative viability EC50 [nM]
Caco-2 [8]	15.4	–
Caco-2 [16]	–	224
Calu-3 [19]	11.6	–
Calu-3 [20]	–	360
HepG2 [6]	11.6	–
HepG2 [14]	–	513
U2OS [9]	7.8	–
U2OS [17]	–	1230
Vero E6 [7]	6.7	–
Vero E6 [15]	–	939

drug-induced phospholipidosis [%], A549-ACE2 [13]
Details	0.3 µM	0.833333 µM	3.33333 µM	6.66667 µM	10 µM	30 µM
24 h	2.06	-1.22	-9.27	4.33	16.4	32
48 h	3.07	-6.1	-3.84	10.2	–	–
72 h	12.7	–	–	–	–	–

Clc1ccc2c(c1)N=C(N1CCNCC1)c1ccccc1N2 [desmethylclozapine]
Details	SARS-CoV-2 infection rate [%]	cell count [%]	cell viability [%]	morphology score	phospholipidosis EC50 [nM]
A549-ACE2 [5], 24 h	–	–	–	–	6540
A549-ACE2 [5], 48 h	–	–	–	–	6430
A549-ACE2 [5], 72 h	–	–	–	–	8340
Caco-2 [3], 1 nM	–	–	88	–	–
Caco-2 [3], 10 nM	–	–	94.2	–	–
Caco-2 [3], 100 nM	–	–	92.9	–	–
Caco-2 [3], 1000 nM	–	–	98.5	–	–
Caco-2 [3], 10000 nM	–	–	99.1	–	–
Calu-3 [18], 1 nM	–	–	104	–	–
Calu-3 [18], 10 nM	–	–	114	–	–
Calu-3 [18], 100 nM	–	–	104	–	–
Calu-3 [18], 1000 nM	–	–	116	–	–
Calu-3 [18], 10000 nM	–	–	91.8	–	–
HepG2 [1], 1 nM	–	–	97.3	–	–
HepG2 [1], 10 nM	–	–	105	–	–
HepG2 [1], 100 nM	–	–	96.8	–	–
HepG2 [1], 1000 nM	–	–	104	–	–
HepG2 [1], 10000 nM	–	–	87.7	–	–
U2OS [4], 1 nM	–	–	106	–	–
U2OS [4], 10 nM	–	–	103	–	–
U2OS [4], 100 nM	–	–	100	–	–
U2OS [4], 1000 nM	–	–	102	–	–
U2OS [4], 10000 nM	–	–	97.6	–	–
Vero E6 [2], 1 nM	–	–	103	–	–
Vero E6 [2], 10 nM	–	–	107	–	–
Vero E6 [2], 100 nM	–	–	94.2	–	–
Vero E6 [2], 1000 nM	–	–	102	–	–
Vero E6 [2], 10000 nM	–	–	93	–	–
[10], 0.3 µM	–	100	–	–	–
[10], 3 µM	–	112	–	–	–
[10], 10 µM	–	115	–	–	–
[10], 30 µM	–	121	–	–	–
[11], 0.3 µM	–	–	–	0.09	–
[11], 3 µM	–	–	–	0.63	–
[11], 10 µM	–	–	–	0.76	–
[11], 30 µM	–	–	–	0.73	–
[12], 0.3 µM	96	–	–	–	–
[12], 3 µM	62	–	–	–	–
[12], 10 µM	28	–	–	–	–
[12], 30 µM	13	–	–	–	–

Details	drug sensitivity score	relative viability EC50 [nM]
Caco-2 [8]	0	–
Caco-2 [16]	–	> 10000
Calu-3 [19]	0	–
Calu-3 [20]	–	> 10000
HepG2 [6]	0	–
HepG2 [14]	–	> 10000
U2OS [9]	0	–
U2OS [17]	–	> 10000
Vero E6 [7]	0	–
Vero E6 [15]	–	> 10000

drug-induced phospholipidosis [%], A549-ACE2 [13]
Details	0.3 µM	0.833333 µM	3.33333 µM	6.66667 µM	10 µM	30 µM
24 h	3.47	2.91	27	53.9	65.2	91.3
48 h	4.09	3.86	21.2	55.4	70.7	95.8
72 h	4.5	2.24	18.3	49.2	76.1	116
